Common to all, as to type: cell-based, human
In data set [1] the test system is PI3K-Akt signaling pathway. Put plainly: p-Akt/Akt protein level ratio normalized to β-actin in treated CMT1A iPSC-derived organoids. As to conditions: Day 25, normalized to β-actin.
Data set [2] deals with CMT1A organoids. Put plainly: g-ratio of myelinated axons by transmission electron microscopy in CMT1A organoids. Particulars: Day 25, TEM.
For data set [3], the system named is CMT1A organoids. Put plainly: Myelin periodic line distance (myelin compaction) by transmission electron microscopy in CMT1A organoids.

With “shRNA-2: Short-hairpin RNA against human PMP22, region CDS (SEQ ID NO 10), Sigma Mission pLKO.1-library, lentivirally transduced (guide CCGGCCTGTTCTTCTGCCAACTCTTCTCGAGAAGAGTTGGCAGAAGAACAGGTTTTTG)”, the p-Akt/Akt ratio entry in data set [1] is “reduced p-Akt/Akt ratio could be reversed”. In the data set with CMT1A organoids [2], the g-ratio of axons entry is recorded as “significantly increased the g-ratio”. Besides, the “myelin periodic line distance (myelin compaction)” value in the data set on CMT1A organoids [3] (high concentration (75 μL) of shRNA lentivirus) is recorded as “restored the myelin periodic line distance back to control levels”; with CMT1A organoids [3] (low concentration (25 μL) of shRNA lentivirus), “partially improved myelin compaction”.

The values above are taken from patent US20260258370A1, “METHOD FOR OBTAINING A NEUROMUSCULAR ORGANOID AND USE THEREOF” (Universiteit Antwerpen, priority 2021, published 2026).
